# Test results as given in patent publication US20120309739A1, “AKT / PKB INHIBITORS” (ALMAC DISCOVERY LIMITED, priority 2009, published 2012).
# Where a name gives a salt, the structure may show the parent alone.
# Key:
# AKT1 = target: T1, AKT1 (Homo sapiens, UniProt P31749); assay: AKT Kinase Assay (IMAP fluorescent polarisation) vs AKT1; format: biochemical; settings: activated AKT1, FAM Crosstide substrate
# T1 construct: purchased SignalChem
# Summary of the method: (§1)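 Each activated AKT isoform, at a pre-determined linear-range concentration, was pre-incubated 45 min at room temperature with compound in a fourteen-point half-log series. ATP plus 5′FAM-Crosstide then reacted 1 h; IMAP binding reagent stopped it (1 h). Fluorescence polarisation (ex 485/em 528 nm) versus vehicle gave IC50 by non-linear regression.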
# AKT2 = target: T2, AKT2 (Homo sapiens, UniProt P31751); assay: AKT Kinase Assay (IMAP fluorescent polarisation) vs AKT2; format: biochemical; settings: activated AKT2, FAM Crosstide substrate
# T2 construct: purchased SignalChem
# Summary of the method: as §1
# AKT3 = target: T3, AKT3 (Homo sapiens, UniProt Q9Y243); assay: AKT Kinase Assay (IMAP fluorescent polarisation) vs AKT3; format: biochemical; settings: activated AKT3, FAM Crosstide substrate
# T3 construct: purchased SignalChem
# Summary of the method: as §1
# [1] = test system: PC3 and/or LnCaP cell lines; assay: In vitro cell proliferation assay (Cell Titre Glo); format: cell-based; settings: Homo sapiens, 72 hours, read-out: inhibition of proliferation IC50
# Procedure: Testing of the compounds was also performed using in vitro cell proliferation assays:
# Cell Titre Glo (Promega) is a highly sensitive homogeneous reagent used to determine the viability of cells. The reagent uses a stable form of luciferase to measure ATP as an output of viability. The luminescent values generated in the assay are directly proportional to the number of viable cells in your assay.
# The following materials were used: White, clear bottomed 96 well assay plates (Costar); Cell titre Glo reagents; LnCaP (ECACC) cells grown in RPMI medium (Invitrogen) supplemented with 10 mM HEPES (Invitrogen), 1 mM Sodium pyruvate (Invitrogen), 2 mM L-Glutamine (Invitrogen) and 10% Foetal calf serum (Invitrogen); PC3 (ECACC) cells grown in RPMI medium supplemented with 10% Foetal calf serum (Invitrogen); Trypsin (Invitrogen); PBS (Invitrogen); Biotek Synergy 4 Hybrid Plate reader; 96 well plate shaker (Stuart SSL5); Eppendorf 5414 desk-top centrifuge; Beckman Coulter cell counter Z1 single threshold system.
# Prostate cell lines, PC3 and LnCaP, were washed, detached and re-suspended in their respective fresh media. The cells were pelleted by centrifugation (Eppendorf 5414) and spent supernatant discarded. The cells were re-suspended by vortex mixing, counted and seeded into clear bottom white 96 well plates at a density of 5000 cells per well. The cells were incubated (Sanyo) overnight at 37° C. ([…]/5% CO2), and next day treated with increasing concentrations of test compound formulated in fresh medium. The plates were returned to the incubator for 72 hours.
# Cell Titre Glo (Promega) was prepared by mixing the supplied reagents as per manufacturer's instructions and left to stand at room temperature. The cell plates were removed from the incubator and 80 μl of the Cell Titre Glo solution added to each well. The plate was shaken for five minutes to ensure homogenous mixing of reagents and cells, then left to stand for ten minutes at room temperature.
# The cell viability post compound treatment was determined by the luminescent intensity emitted from the drug treated wells in the plate. In brief, the assay plate was placed in the Biotex Synergy 4 Hybrid plate reader and the luminescence read in each well. The compound treated wells were compared to vehicle treated wells and the % inhibition of cell viability calculated.
# The data was analysed using GraphPad Prism, with IC50 values generated using non-linear regression of the data set.
# T3 sequence (Q9Y243 whole entry): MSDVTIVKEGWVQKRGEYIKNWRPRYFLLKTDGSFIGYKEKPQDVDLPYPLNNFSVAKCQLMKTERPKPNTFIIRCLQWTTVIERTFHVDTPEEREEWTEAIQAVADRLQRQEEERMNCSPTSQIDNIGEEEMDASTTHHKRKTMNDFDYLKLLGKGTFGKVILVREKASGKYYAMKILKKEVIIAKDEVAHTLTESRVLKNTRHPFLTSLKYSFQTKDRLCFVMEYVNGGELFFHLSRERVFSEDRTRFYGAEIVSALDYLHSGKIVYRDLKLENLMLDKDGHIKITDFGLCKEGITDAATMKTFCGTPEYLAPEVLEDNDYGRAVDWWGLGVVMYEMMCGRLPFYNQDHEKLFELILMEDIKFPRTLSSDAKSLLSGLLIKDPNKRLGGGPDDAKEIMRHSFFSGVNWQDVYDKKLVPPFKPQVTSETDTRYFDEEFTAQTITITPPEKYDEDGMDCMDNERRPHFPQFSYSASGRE
# T2 sequence (P31751 whole entry): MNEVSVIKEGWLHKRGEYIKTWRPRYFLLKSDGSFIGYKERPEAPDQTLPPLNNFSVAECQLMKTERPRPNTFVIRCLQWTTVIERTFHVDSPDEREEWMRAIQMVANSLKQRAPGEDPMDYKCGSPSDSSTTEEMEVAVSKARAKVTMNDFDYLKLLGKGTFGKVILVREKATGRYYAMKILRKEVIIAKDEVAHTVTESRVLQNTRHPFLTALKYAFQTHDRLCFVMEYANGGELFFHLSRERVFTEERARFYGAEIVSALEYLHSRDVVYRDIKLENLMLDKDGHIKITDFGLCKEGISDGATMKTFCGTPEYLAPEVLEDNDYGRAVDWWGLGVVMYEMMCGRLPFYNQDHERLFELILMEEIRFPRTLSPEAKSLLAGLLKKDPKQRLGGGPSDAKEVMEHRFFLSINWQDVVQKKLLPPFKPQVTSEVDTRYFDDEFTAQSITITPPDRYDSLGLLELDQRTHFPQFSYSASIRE
# T1 sequence (P31749 whole entry): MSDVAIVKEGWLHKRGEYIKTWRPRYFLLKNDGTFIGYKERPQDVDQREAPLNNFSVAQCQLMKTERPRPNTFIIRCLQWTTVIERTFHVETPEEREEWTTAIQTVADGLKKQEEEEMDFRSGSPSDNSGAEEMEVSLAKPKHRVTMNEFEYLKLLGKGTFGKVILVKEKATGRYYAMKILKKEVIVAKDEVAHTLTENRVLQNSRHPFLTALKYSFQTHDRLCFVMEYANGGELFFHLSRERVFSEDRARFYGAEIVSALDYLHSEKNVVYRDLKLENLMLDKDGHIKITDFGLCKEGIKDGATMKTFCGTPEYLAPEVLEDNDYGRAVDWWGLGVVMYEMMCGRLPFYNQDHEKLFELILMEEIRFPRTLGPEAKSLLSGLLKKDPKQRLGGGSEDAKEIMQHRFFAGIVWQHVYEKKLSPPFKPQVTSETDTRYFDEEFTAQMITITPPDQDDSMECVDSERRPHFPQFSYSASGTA
compound,measurement,setting,value
"NC1(c2ccc(-c3oc4ccncc4c3-c3ccccc3)cc2)CCC1 [Example 1, 1-(4-(3-phenylfuro[3,2-c]pyridin-2-yl)phenyl)cyclobutanamine]",IC50,AKT1,1000 to 10000 nM
same,IC50,AKT2,1000 to 10000 nM
same,IC50,AKT3,1 to 10 µM
same,IC50,[1],< 10 µM
"NC1(c2ccc(-c3oc4nccnc4c3-c3ccccc3)cc2)CCC1 [Example 10, 1-(4-(7-Phenylfuro[2,3-b]pyrazin-6-yl)phenyl)cyclobutanamine.HCl]",IC50,AKT1,1000 to 10000 nM
same,IC50,AKT2,1000 to 10000 nM
same,IC50,AKT3,> 10 µM
same,IC50,[1],< 10 µM
"NC1(c2ccc(-c3oc4nc[nH]c(=O)c4c3-c3ccccc3)cc2)CCC1 [Example 12, 6-(4-(1-Aminocyclobutyl)phenyl)-5-phenylfuro[2,3-d]pyrimidin-4(3H)-one]",IC50,AKT1,1000 to 10000 nM
same,IC50,AKT2,1000 to 10000 nM
same,IC50,AKT3,1 to 10 µM
same,IC50,[1],< 10 µM
"CSc1ncc2c(-c3ccccc3)c(-c3ccc(C4(N)CCC4)cc3)oc2n1 [Example 24, 1-(4-(2-(Methylthio)-5-phenylfuro[2,3-d]pyrimidin-6-yl)phenyl)cyclobutanamine]",IC50,AKT1,1000 to 10000 nM
same,IC50,AKT2,100 to 1000 nM
same,IC50,AKT3,> 10 µM
same,IC50,[1],< 10 µM
"CNc1nc(OC)c2c(-c3ccccc3)c(-c3ccc(C4(N)CCC4)cc3)oc2n1 [Example 32, 6-(4-(1-Aminocyclobutyl)phenyl)-4-methoxy-N-methyl-5-phenylfuro[2,3-d]pyrimidin-2-amine]",IC50,AKT1,≤ 100 nM
same,IC50,AKT2,100 to 1000 nM
same,IC50,AKT3,> 10 µM
same,IC50,[1],< 10 µM
"COc1nc(OCCO)nc2oc(-c3ccc(C4(N)CCC4)cc3)c(-c3ccccc3)c12 [Example 36, 2-((6-(4-(1-Aminocyclobutyl)phenyl)-4-methoxy-5-phenylfuro[2,3-d]pyrimidin-2-yl)oxy)ethanol]",IC50,AKT1,≤ 100 nM
same,IC50,AKT2,100 to 1000 nM
same,IC50,AKT3,> 10 µM
same,IC50,[1],< 10 µM
"COc1nc(N2CCNCC2)nc2oc(-c3ccc(C4(N)CCC4)cc3)c(-c3ccccc3)c12 [Example 37, 1-(4-(4-Methoxy-5-phenyl-2-(piperazin-1-yl)furo[2,3-d]pyrimidin-6-yl)phenyl)cyclobutanamine]",IC50,AKT1,100 to 1000 nM
same,IC50,AKT2,100 to 1000 nM
same,IC50,AKT3,1 to 10 µM
same,IC50,[1],< 10 µM
"NC1(c2ccc(-c3oc4ncc(C5CC5)nc4c3-c3ccccc3)cc2)CCC1 [Example 138, 1-(4-(2-Cyclopropyl-7-phenylfuro[2,3-b]pyrazin-6-yl)phenyl)cyclobutanamine]",IC50,AKT1,100 to 1000 nM
same,IC50,AKT2,100 to 1000 nM
same,IC50,AKT3,1 to 10 µM
"NC1(c2ccc(-c3oc4ncc(-c5ccccc5)nc4c3-c3ccccc3)cc2)CCC1 [Example 139, 1-(4-(2,7-Diphenylfuro[2,3-b]pyrazin-6-yl)phenyl)cyclobutanamine, HCl]",IC50,AKT1,1000 to 10000 nM
same,IC50,AKT2,1000 to 10000 nM
same,IC50,AKT3,1 to 10 µM
"NC1(c2ccc(-c3oc4ncc(-c5cncnc5)nc4c3-c3ccccc3)cc2)CCC1 [Example 140, 1-(4-(7-Phenyl-2-(pyrimidin-5-yl)furo[2,3-b]pyrazin-6-yl)phenyl)cyclobutanamine]",IC50,AKT1,1000 to 10000 nM
same,IC50,AKT2,100 to 1000 nM
same,IC50,AKT3,> 10 µM
"NC1(c2ccc(-c3oc4ncc(-c5ccccn5)nc4c3-c3ccccc3)cc2)CCC1 [Example 141, 1-(4-(7-Phenyl-2-(pyridin-2-yl)furo[2,3-b]pyrazin-6-yl)phenyl)cyclobutanamine]",IC50,AKT1,1000 to 10000 nM
same,IC50,AKT2,1000 to 10000 nM
same,IC50,AKT3,> 10 µM
"NC1(c2ccc(-c3oc4ncc(COCc5ccccc5)nc4c3-c3ccccc3)cc2)CCC1 [Example 142, 1-(4-(2-(Benzyloxymethyl)-7-phenylfuro[2,3-b]pyrazin-6-yl)phenyl)cyclobutanamine]",IC50,AKT1,100 to 1000 nM
same,IC50,AKT2,100 to 1000 nM
same,IC50,AKT3,1 to 10 µM
"Cc1n[nH]c(C)c1-c1cnc2oc(-c3ccc(C4(N)CCC4)cc3)c(-c3ccccc3)c2n1 [Example 143, 1-(4-(2-(3,5-Dimethyl-1H-pyrazol-4-yl)-7-phenylfuro[2,3-b]pyrazin-6-yl)phenyl)cyclobutanamine]",IC50,AKT1,1000 to 10000 nM
same,IC50,AKT2,1000 to 10000 nM
same,IC50,AKT3,> 10 µM
"NC1(c2ccc(-c3oc4ncc(-c5ccn[nH]5)nc4c3-c3ccccc3)cc2)CCC1 [Example 144, 1-(4-(7-Phenyl-2-(1H-pyrazol-5-yl)furo[2,3-b]pyrazin-6-yl)phenyl)cyclobutanamine]",IC50,AKT1,1000 to 10000 nM
same,IC50,AKT2,1000 to 10000 nM
same,IC50,AKT3,> 10 µM
"NC1(c2ccc(-c3oc4ncc(CO)nc4c3-c3ccccc3)cc2)CCC1 [Example 145, (6-(4-(1-Aminocyclobutyl)phenyl)-7-phenylfuro[2,3-b]pyrazin-2-yl)methanol]",IC50,AKT1,1000 to 10000 nM
same,IC50,AKT2,1000 to 10000 nM
same,IC50,AKT3,> 10 µM
"C#Cc1cnc2oc(-c3ccc(C4(N)CCC4)cc3)c(-c3ccccc3)c2n1 [Example 146, 1-(4-(2-Ethynyl-7-phenylfuro[2,3-b]pyrazin-6-yl)phenyl)cyclobutanamine]",IC50,AKT1,1000 to 10000 nM
same,IC50,AKT2,1000 to 10000 nM
same,IC50,AKT3,> 10 µM
"NC1(c2ccc(-c3oc4ncc(-c5cnn[nH]5)nc4c3-c3ccccc3)cc2)CCC1 [Example 147, 1-(4-(7-Phenyl-2-(1H-1,2,3-triazol-5-yl)furo[2,3-b]pyrazin-6-yl)phenyl)cyclobutanamine]",IC50,AKT1,1000 to 10000 nM
same,IC50,AKT2,1000 to 10000 nM
same,IC50,AKT3,> 10 µM
"NC1(c2ccc(-c3oc4ncc(NCCO)nc4c3-c3ccccc3)cc2)CCC1 [Example 148, 2-(6-(4-(1-Aminocyclobutyl)phenyl)-7-phenylfuro[2,3-b]pyrazin-2-ylamino)ethanol]",IC50,AKT1,100 to 1000 nM
same,IC50,AKT2,1000 to 10000 nM
same,IC50,AKT3,> 10 µM
"Cc1cnc2oc(-c3ccc(C4(N)CCC4)cc3)c(-c3ccccc3)c2n1 [Example 149, 1-(4-(2-Methyl-7-phenylfuro[2,3-b]pyrazin-6-yl)phenyl)cyclobutanamine]",IC50,AKT1,100 to 1000 nM
same,IC50,AKT2,1000 to 10000 nM
same,IC50,AKT3,> 10 µM
"NC1(c2ccc(-c3oc4ncc(-c5cccnc5)nc4c3-c3ccccc3)cc2)CCC1 [Example 150, 1-(4-(7-Phenyl-2-(pyridin-3-yl)furo[2,3-b]pyrazin-6-yl)phenyl)cyclobutanamine, 2HCl]",IC50,AKT1,1000 to 10000 nM
same,IC50,AKT2,100 to 1000 nM
same,IC50,AKT3,> 10 µM
"CC(=O)Nc1cccc(-c2cnc3oc(-c4ccc(C5(N)CCC5)cc4)c(-c4ccccc4)c3n2)c1 [Example 151, N-(3-(6-(4-(1-Aminocyclobutyl)phenyl)-7-phenylfuro[2,3-b]pyrazin-2-yl)phenyl)acetamide, HCl]",IC50,AKT1,1000 to 10000 nM
same,IC50,AKT2,1000 to 10000 nM
same,IC50,AKT3,> 10 µM
"NC(=O)c1cccc(-c2cnc3oc(-c4ccc(C5(N)CCC5)cc4)c(-c4ccccc4)c3n2)c1 [Example 152, 3-(6-(4-(1-Aminocyclobutyl)phenyl)-7-phenylfuro[2,3-b]pyrazin-2-yl)benzamide, HCl]",IC50,AKT1,100 to 1000 nM
same,IC50,AKT2,1000 to 10000 nM
same,IC50,AKT3,> 10 µM
"CSc1cnc2c(-c3ccccc3)c(-c3ccc(C4(N)CCC4)cc3)[nH]c2n1 [Example 153, 1-(4-(3-(Methylthio)-7-phenyl-5H-pyrrolo[3,2-b]pyrazin-6-yl)phenyl)cyclobutanamine]",IC50,AKT1,100 to 1000 nM
same,IC50,AKT2,100 to 1000 nM
same,IC50,AKT3,> 10 µM
